Measured values published in patent US20020137929A1, “1 - (3-heterocyclylphenyl) isothiourea, -isourea, -guanidine and -amidine herbicidal agents” (Intellectual Property Department, BASF Aktiengesellschaft, priority 1998, published 2002).

Assays:
CYPSE (Flatsedge) = assay: Preemergence weed control under flooded paddy conditions; format: in vivo, Cyperus serotinus; details: rated 3-4 weeks after treatment
Procedure, shortened: (§1)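 Herbicidal effect is scored visually on a 0-9 scale against an untreated control, three to four weeks after compounds are pipetted into the flood water (1.5 to 3 cm deep) over seeds planted in silt loam at 0.5 cm depth. Rates: about 0.0313 to 0.500 kg/ha.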

[1] = tested on: IPOHE (Morningglory, Ivyleaf); assay: Preemergence herbicidal evaluation; format: in vivo, Ipomoea hederacea; details: rated 4-5 weeks after treatment
Procedure, shortened: (§2)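 Steps: mix seeds into potting soil; plant atop ~1 inch soil; spray compound in aqueous acetone (~0.0156-0.500 kg/ha equivalent); maintain in greenhouse with watering; rate visually 0-9 versus control at 4-5 weeks.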

ABUTH (Velvetleaf) [2] = assay: Preemergence herbicidal evaluation; format: in vivo, Abutilon theophrasti; details: rated 4-5 weeks after treatment
Procedure, shortened: as §2

AMBEL (Ragweed, Common) = assay: Preemergence herbicidal evaluation; format: in vivo, Ambrosia artemisifolia; details: rated 4-5 weeks after treatment
Procedure, shortened: as §2

ABUTH (Velvetleaf) [3] = assay: Postemergence herbicidal evaluation; format: in vivo, Abutilon theophrasti; details: postemergence
Procedure, shortened: (§3)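 Two-week-old seedlings sprayed with compound in 50/50 acetone/water plus 0.5% TWEEN 20, at about 0.0156 to 0.500 kg/ha, nozzle at 40 psi. Kept in greenhouse; rated visually 4-5 weeks after treatment on a 0-9 scale versus control, repeat tests averaged.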

[4] = tested on: GLXMAW (Soybean, Williams); assay: Postemergence herbicidal evaluation; format: in vivo, Glycine max, (L.) Merr. cv Williams; details: postemergence
Procedure, shortened: as §3

[5] = tested on: ECHORC (Watergrass (Calif.)); assay: Preemergence weed control under flooded paddy conditions; format: in vivo, Echinochloa oryzoides; details: rated 3-4 weeks after treatment
Procedure, shortened: as §1

ZEAMX (Corn, Field) = assay: Postemergence herbicidal evaluation; format: in vivo, Zea mays; details: postemergence
Procedure, shortened: as §3

CASOB (Sicklepod) = assay: Preemergence herbicidal evaluation; format: in vivo, Cassia obtusifolia; details: rated 4-5 weeks after treatment
Procedure, shortened: as §2

[6] = tested on: ECHORC (Watergrass (Calif.)); assay: Postemergence weed control under flooded paddy conditions; format: in vivo, Echinochloa oryzoides; details: postemergence weeds, rated 3 to 4 weeks after treatment
Procedure, shortened: (§4)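 Injury ratings (0–9 scale covering stand, vigor, malformation, size, chlorosis and overall appearance versus control) were made three to four weeks after treatment. Test material, about 0.0313 to 0.500 kg/ha a.i. in 50/50 v/v aqueous/acetone, was added to flood water 1.5 to 3 cm deep over 3 to 5 cm weeds and 1.5 to 2.5 leaf rice.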

[7] = tested on: IPOHE (Morningglory, Ivyleaf); assay: Postemergence herbicidal evaluation; format: in vivo, Ipomoea hederacea; details: postemergence
Procedure, shortened: as §3

CYPIR (Rice Flatsedge) = assay: Postemergence weed control under flooded paddy conditions; format: in vivo, Cyperus iria; details: postemergence weeds, rated 3 to 4 weeks after treatment
Procedure, shortened: as §4

ECHCG (Barnyardgrass) = assay: Preemergence herbicidal evaluation; format: in vivo, Echinochloa crus-galli; details: rated 4-5 weeks after treatment
Procedure, shortened: as §2

SETVI (Foxtail, Green) = assay: Postemergence herbicidal evaluation; format: in vivo, Setaria viridis; details: postemergence
Procedure, shortened: as §3

C[C@@H](C(=O)OC(C)(C)C)N1C(=O)CSC1=Nc1cc(-n2c(=O)cc(C(F)(F)F)n(C)c2=O)c(F)cc1Cl [Compound 75, tert-Butyl 2-{{2-chloro-5-[3,6-dihydro-3-methyl-2,6-dioxo-4-(trifluoromethyl)-1(2H)-pyrimidinyl]-4-fluorophenyl}imino}-α-methyl-4-oxo-3-thiazolidineacetate, L-]
9.0: Preemergence herbicidal rating ABUTH (ABUTH (Velvetleaf) [2]; rate 0.0625 kg/ha) | Preemergence herbicidal rating ABUTH (ABUTH (Velvetleaf) [2]; rate 0.1250 kg/ha) | Preemergence herbicidal rating ABUTH (ABUTH (Velvetleaf) [2]; rate 0.2500 kg/ha) | ABUTH herbicidal rating (ABUTH (Velvetleaf) [3]; rate 0.0158 kg/ha) | ABUTH herbicidal rating (ABUTH (Velvetleaf) [3]; rate 0.0315 kg/ha) | ABUTH herbicidal rating (ABUTH (Velvetleaf) [3]; rate 0.0630 kg/ha) | ECHORC herbicidal effect rating ([5]; 0.1250 kg/ha) | ECHORC herbicidal effect rating ([5]; 0.2500 kg/ha) | Herbicidal rating ECHORC ([6]; Rate 0.1250 kg/ha) | Herbicidal rating ECHORC ([6]; Rate 0.2500 kg/ha) | IPOHE herbicidal rating ([7]; rate 0.0630 kg/ha)
5.0: GLXMAW herbicidal rating ([4]; rate 0.0630 kg/ha) | ZEAMX herbicidal rating (ZEAMX (Corn, Field); rate 0.0630 kg/ha) | SETVI herbicidal rating (SETVI (Foxtail, Green); rate 0.0315 kg/ha)
4.0: GLXMAW herbicidal rating ([4]; rate 0.0158 kg/ha) | ZEAMX herbicidal rating (ZEAMX (Corn, Field); rate 0.0158 kg/ha)
6.0: Preemergence herbicidal rating AMBEL (AMBEL (Ragweed, Common); rate 0.1250 kg/ha) | ECHORC herbicidal effect rating ([5]; 0.0313 kg/ha) | ECHORC herbicidal effect rating ([5]; 0.0625 kg/ha) | Herbicidal rating ECHORC ([6]; Rate 0.0313 kg/ha) | Herbicidal rating ECHORC ([6]; Rate 0.0625 kg/ha) | Herbicidal rating CYPIR (CYPIR (Rice Flatsedge); Rate 0.1250 kg/ha) | Herbicidal rating CYPIR (CYPIR (Rice Flatsedge); Rate 0.2500 kg/ha)
1.0: Preemergence herbicidal rating AMBEL (AMBEL (Ragweed, Common); rate 0.0625 kg/ha) | Preemergence herbicidal rating CASOB (CASOB (Sicklepod); rate 0.1250 kg/ha) | Preemergence herbicidal rating CASOB (CASOB (Sicklepod); rate 0.2500 kg/ha) | SETVI herbicidal rating (SETVI (Foxtail, Green); rate 0.0158 kg/ha)
7.0: Preemergence herbicidal rating AMBEL (AMBEL (Ragweed, Common); rate 0.2500 kg/ha) | IPOHE herbicidal rating ([7]; rate 0.0158 kg/ha) | IPOHE herbicidal rating ([7]; rate 0.0315 kg/ha)
2.0: CYPSE herbicidal effect rating (CYPSE (Flatsedge); 0.0313 kg/ha) | Preemergence herbicidal rating IPOHE ([1]; rate 0.2500 kg/ha) | Preemergence herbicidal rating ECHCG (ECHCG (Barnyardgrass); rate 0.2500 kg/ha)
3.0: CYPSE herbicidal effect rating (CYPSE (Flatsedge); 0.0625 kg/ha) | CYPSE herbicidal effect rating (CYPSE (Flatsedge); 0.1250 kg/ha) | CYPSE herbicidal effect rating (CYPSE (Flatsedge); 0.2500 kg/ha) | SETVI herbicidal rating (SETVI (Foxtail, Green); rate 0.0630 kg/ha)
0.0: Preemergence herbicidal rating IPOHE ([1]; rate 0.0156 kg/ha) | Preemergence herbicidal rating IPOHE ([1]; rate 0.0313 kg/ha) | Preemergence herbicidal rating IPOHE ([1]; rate 0.0625 kg/ha) | Preemergence herbicidal rating IPOHE ([1]; rate 0.1250 kg/ha) | Preemergence herbicidal rating ABUTH (ABUTH (Velvetleaf) [2]; rate 0.0156 kg/ha) | Preemergence herbicidal rating ABUTH (ABUTH (Velvetleaf) [2]; rate 0.0313 kg/ha) | Preemergence herbicidal rating AMBEL (AMBEL (Ragweed, Common); rate 0.0156 kg/ha) | Preemergence herbicidal rating AMBEL (AMBEL (Ragweed, Common); rate 0.0313 kg/ha) | Preemergence herbicidal rating CASOB (CASOB (Sicklepod); rate 0.0156 kg/ha) | Preemergence herbicidal rating CASOB (CASOB (Sicklepod); rate 0.0313 kg/ha) | Preemergence herbicidal rating CASOB (CASOB (Sicklepod); rate 0.0625 kg/ha) | Herbicidal rating CYPIR (CYPIR (Rice Flatsedge); Rate 0.0313 kg/ha) | Herbicidal rating CYPIR (CYPIR (Rice Flatsedge); Rate 0.0625 kg/ha) | Preemergence herbicidal rating ECHCG (ECHCG (Barnyardgrass); rate 0.0156 kg/ha) | Preemergence herbicidal rating ECHCG (ECHCG (Barnyardgrass); rate 0.0313 kg/ha) | Preemergence herbicidal rating ECHCG (ECHCG (Barnyardgrass); rate 0.0625 kg/ha) | Preemergence herbicidal rating ECHCG (ECHCG (Barnyardgrass); rate 0.1250 kg/ha)
4.5: GLXMAW herbicidal rating ([4]; rate 0.0315 kg/ha) | ZEAMX herbicidal rating (ZEAMX (Corn, Field); rate 0.0315 kg/ha)

CCOC(=O)[C@H](Cc1ccccc1)N1C(=O)CSC1=Nc1cc(-n2c(=O)cc(C(F)(F)F)n(C)c2=O)c(F)cc1Cl [Compound 80, Ethyl α-benzyl-2-{{2-chloro-5-[3,6-dihydro-3-methyl-2,6-dioxo-4-(trifluoromethyl)-1(2H)-pyrimidinyl]-4-fluorophenyl}imino}-4-oxo-3-thiazolidineacetate, L-]
6.5: GLXMAW herbicidal rating ([4]; rate 0.0630 kg/ha)
5.0: ZEAMX herbicidal rating (ZEAMX (Corn, Field); rate 0.0158 kg/ha) | ZEAMX herbicidal rating (ZEAMX (Corn, Field); rate 0.0315 kg/ha) | Herbicidal rating CYPIR (CYPIR (Rice Flatsedge); Rate 0.0313 kg/ha)
3.0: CYPSE herbicidal effect rating (CYPSE (Flatsedge); 0.0313 kg/ha) | CYPSE herbicidal effect rating (CYPSE (Flatsedge); 0.0625 kg/ha) | CYPSE herbicidal effect rating (CYPSE (Flatsedge); 0.1250 kg/ha)
7.0: Preemergence herbicidal rating AMBEL (AMBEL (Ragweed, Common); rate 0.2500 kg/ha) | Herbicidal rating CYPIR (CYPIR (Rice Flatsedge); Rate 0.0625 kg/ha) | Herbicidal rating CYPIR (CYPIR (Rice Flatsedge); Rate 0.1250 kg/ha) | Herbicidal rating CYPIR (CYPIR (Rice Flatsedge); Rate 0.2500 kg/ha)
4.5: GLXMAW herbicidal rating ([4]; rate 0.0158 kg/ha)
4.0: CYPSE herbicidal effect rating (CYPSE (Flatsedge); 0.2500 kg/ha) | Preemergence herbicidal rating IPOHE ([1]; rate 0.1250 kg/ha) | SETVI herbicidal rating (SETVI (Foxtail, Green); rate 0.0630 kg/ha)
0.0: Preemergence herbicidal rating IPOHE ([1]; rate 0.0156 kg/ha) | Preemergence herbicidal rating IPOHE ([1]; rate 0.0313 kg/ha) | Preemergence herbicidal rating IPOHE ([1]; rate 0.0625 kg/ha) | Preemergence herbicidal rating ABUTH (ABUTH (Velvetleaf) [2]; rate 0.0156 kg/ha) | Preemergence herbicidal rating AMBEL (AMBEL (Ragweed, Common); rate 0.0313 kg/ha) | Preemergence herbicidal rating CASOB (CASOB (Sicklepod); rate 0.0313 kg/ha) | Preemergence herbicidal rating CASOB (CASOB (Sicklepod); rate 0.0625 kg/ha) | Preemergence herbicidal rating ECHCG (ECHCG (Barnyardgrass); rate 0.0156 kg/ha) | Preemergence herbicidal rating ECHCG (ECHCG (Barnyardgrass); rate 0.0313 kg/ha) | Preemergence herbicidal rating ECHCG (ECHCG (Barnyardgrass); rate 0.0625 kg/ha) | Preemergence herbicidal rating ECHCG (ECHCG (Barnyardgrass); rate 0.2500 kg/ha)
9.0: Preemergence herbicidal rating IPOHE ([1]; rate 0.2500 kg/ha) | Preemergence herbicidal rating ABUTH (ABUTH (Velvetleaf) [2]; rate 0.0625 kg/ha) | Preemergence herbicidal rating ABUTH (ABUTH (Velvetleaf) [2]; rate 0.1250 kg/ha) | Preemergence herbicidal rating ABUTH (ABUTH (Velvetleaf) [2]; rate 0.2500 kg/ha) | Preemergence herbicidal rating AMBEL (AMBEL (Ragweed, Common); rate 0.1250 kg/ha) | ABUTH herbicidal rating (ABUTH (Velvetleaf) [3]; rate 0.0158 kg/ha) | ABUTH herbicidal rating (ABUTH (Velvetleaf) [3]; rate 0.0315 kg/ha) | ABUTH herbicidal rating (ABUTH (Velvetleaf) [3]; rate 0.0630 kg/ha) | ECHORC herbicidal effect rating ([5]; 0.0313 kg/ha) | ECHORC herbicidal effect rating ([5]; 0.0625 kg/ha) | ECHORC herbicidal effect rating ([5]; 0.1250 kg/ha) | ECHORC herbicidal effect rating ([5]; 0.2500 kg/ha) | Preemergence herbicidal rating CASOB (CASOB (Sicklepod); rate 0.1250 kg/ha) | Preemergence herbicidal rating CASOB (CASOB (Sicklepod); rate 0.2500 kg/ha) | Herbicidal rating ECHORC ([6]; Rate 0.0313 kg/ha) | Herbicidal rating ECHORC ([6]; Rate 0.0625 kg/ha) | Herbicidal rating ECHORC ([6]; Rate 0.1250 kg/ha) | Herbicidal rating ECHORC ([6]; Rate 0.2500 kg/ha) | IPOHE herbicidal rating ([7]; rate 0.0158 kg/ha) | IPOHE herbicidal rating ([7]; rate 0.0315 kg/ha) | IPOHE herbicidal rating ([7]; rate 0.0630 kg/ha)
1.0: Preemergence herbicidal rating ABUTH (ABUTH (Velvetleaf) [2]; rate 0.0313 kg/ha) | Preemergence herbicidal rating CASOB (CASOB (Sicklepod); rate 0.0156 kg/ha) | Preemergence herbicidal rating ECHCG (ECHCG (Barnyardgrass); rate 0.1250 kg/ha) | SETVI herbicidal rating (SETVI (Foxtail, Green); rate 0.0158 kg/ha)
2.0: Preemergence herbicidal rating AMBEL (AMBEL (Ragweed, Common); rate 0.0625 kg/ha) | SETVI herbicidal rating (SETVI (Foxtail, Green); rate 0.0315 kg/ha)
5.5: GLXMAW herbicidal rating ([4]; rate 0.0315 kg/ha) | ZEAMX herbicidal rating (ZEAMX (Corn, Field); rate 0.0630 kg/ha)
